A word on the melting point: it is the temperature, or range, at which the solid turns liquid. Compound `COC(=O)c1c(Cl)ccc2[nH]c(Sc3cccc4c(S(C)(=O)=O)c[nH]c34)nc12` returned a melting point of 284 to 286 °C.
The same measure for `Oc1cc2ccc(Cc3ccccc3)cc2cc1O`: 177 to 187 °C; for `CCOC(=O)c1ccc(NCCc2ccc(Cl)cc2)cc1`: 75 to 77 °C.
`c1ccc(-c2[nH]c3ccccc3c2C2CCNCC2)cc1`: the melting point was 187 to 188 °C.
Compound `CC(=O)Oc1ccccc1Cn1nnnc1-c1cccc(Cl)c1Cl` gave a melting point of 195 to 196 °C.
In turn, `CCOC(=O)C=Cc1ccc(-n2ccnc2)cc1` came in with a melting point of 96 to 97.5 °C.
`CC(C)C(CN1CCCC1)C(=O)c1cc(-c2ccccc2)no1` (stereo not drawn) yielded a melting point of 77 to 79 °C.
For `CN1C(=O)C(C(=O)Nc2ccc(Oc3nc(C(F)(F)F)nn3C)cc2)C(=O)N(C)C1=O` the value was 202 to 204 °C; for `NC(=O)c1ccc(F)c(Br)c1`, 131 to 133 °C; for `CC(C)n1nc(C(Cl)C(=O)c2cccc(F)c2)ccc1=O` (stereo not drawn), 65.5 to 66.5 °C.
`NN1CCC[C@H]1C(=O)O` came in with a melting point of 153 to 154 °C.
The same measure for `N#CCCNC(=O)c1cccc(-c2cccn3cc(Cc4cccc(C(F)(F)F)c4)nc23)c1`: 126 to 127 °C.
Consider `CCOC(=O)CCC(=O)Nc1n[nH]c2cc(C(F)(F)F)ccc12`, for which the melting point amounted to 248 °C.
For `COc1ncccc1-c1cncc(OC2SCC(O)C(O)C2O)c1` (stereo not drawn) the value was 209 °C; for `Cc1cc(O)nc(Oc2cc(C(F)(F)F)nn2C)c1`, 159 °C; for `COc1nc2cc(Cl)c(Cl)c(N(CC(C)O)S(C)(=O)=O)c2nc1OC` (racemic), 176 to 177 °C.
In turn, `Cc1cccc(CC(=O)c2ccnc(-c3ccc(OCC(N)=O)cc3)c2)n1` came in with a melting point of 168 °C.
The same measure for `CN(C(=O)c1cccc2ccccc12)[C@H](Cc1ccc(C(F)(F)F)cc1)[C@@H](O)c1ccc(F)cc1` (racemic): 196 to 197 °C; for `COc1ccccc1NC(=O)NC1N=C(c2ccccc2)c2ccccc2N(C)C1=O` (stereo not drawn): 258 to 260 °C; for `O=C1NCc2c(O)nc3ccccc3c21`: 245 to 246 °C.
`Cc1cc(-c2cccc(NC(=O)C3CC3)c2)n2ncc(C(=O)c3cccs3)c2n1` returned a melting point of 184 to 186 °C.
For `Nc1ccc(CS(=O)(=O)NC2CCCCC2)cc1` the value was 141 to 143 °C; for `CCC(=O)Nc1cccc(C(=O)C=CN(C)C)c1`, 106 to 108 °C.
Consider `CC(=O)OCC(=O)C1CC(OS(=O)(=O)c2c(C)cc(C)cc2C)C2C3CCC4CC(OC(C)=O)CCC4(C)C3CC(OC(C)=O)C12C` (stereo not drawn), for which the melting point was in the range of 156 to 157 °C.
Take `CC(C)c1cccc(C(C)C)c1N1C(=O)c2cccc3c(C#N)ccc(c23)C1=O`: the melting point was determined as 291 °C.
Regarding `CN(C)C1CCN(c2cccc(-c3cnc4[nH]cc(C(=O)C(C)(C)C)c4n3)c2)C1` (stereo not drawn), the melting point fell in the range of 204 to 206 °C.
`CC(C)(C)c1nc2cc(N3CCOCC3)c(N)cc2s1`: the melting point is 158 to 159 °C.
In the case of `O=C=Nc1ccc2c(c1)C(=O)CC2`, the melting point came out at 72 °C.
In turn, `C=CCc1c(OC)cc(OC)cc1C(=O)O` displayed a melting point of 109 to 111 °C.
The same measure for `CC#CCOc1cc(-c2ccc(F)cc2F)ncn1`: 63.9 °C; for `COCCNC(=O)c1c(O)c2ccccc2n(C)c1=N`: 208 to 210 °C; for `Cc1oc(-c2cccs2)nc1COc1ccc(CON=C(CCC(=O)O)c2ccccc2)cc1`: 142 to 143 °C.
The same measure for `O=[N+]([O-])c1cc(C=Cc2ccncc2)cc(O)c1O`: greater than 350 °C; for `CCc1nc2c(cnn2CC)c(NC2CCOCC2)c1CNC(=O)c1cccc(C(=O)NCc2ccc(C)c(Br)c2)c1`: 175 to 176 °C; for `Oc1ccc(-c2nc3cc(O)cc(C(Br)CBr)c3o2)cc1` (stereo not drawn): 175 to 177 °C.
For `Cn1cc(C2=C(c3cn(CCCSc4ncc[nH]4)c4ccccc34)C(=O)NC2=O)c2ccccc21` the value was 130 to 132 °C; for `Cc1cccc(C)c1NC(=O)C(C)N1CSCC1=O` (stereo not drawn), 153 to 154 °C.
For the compound `Cc1nc2ccc(N3CC4CNCC4C3)nn2c1-c1ccnc(CN)c1` (stereo not drawn), the melting point worked out at 169 °C.
Turning to `CS(=O)(=O)Nc1cc2occ(C=NO)c(=O)c2cc1Oc1ccccc1`, the melting point was 199 to 200 °C.
The same measure for `CC(C)(C=O)Cc1cc(C(C)(C)C)c(O)c(C(C)(C)C)c1`: 72 to 74 °C.
The same measure for `OCC1OC(n2c(Cl)nc3c(NCc4ccccc4)ncnc32)C(O)C1O` (stereo not drawn): 90 to 92 °C; for `CC(C)C1CCN(Cc2ccc(COc3cccc4c3CN(C3CCC(=O)NC3=O)C4=O)cc2)CC1` (stereo not drawn): 124 to 126 °C; for `COc1ccc(CC(=O)c2c(OC)cc(OC)cc2OC)c(OC)c1`: 109 to 111 °C.
The same measure for `CCOc1nn(CCc2ccc(OCc3nc(-c4ccccc4)oc3C)cc2)cc1CCC(=O)O`: 110 to 111 °C; for `COc1ccnc(Nc2nc(-c3ccncc3)cs2)c1`: 190 to 192 °C.
`Cc1nnc2n1-c1sc(CCc3ccc(Cl)cc3)cc1C(c1ccccc1Cl)=NC2` had a melting point of 162 to 164 °C.
The compound `O=C(NCCCn1ccnc1)c1cccc(Cl)c1` gave a melting point of 125 to 127 °C.
For `COC(=O)C1(Cl)CC1C(=O)O` (stereo not drawn) the value was 77.7 to 79.1 °C; for `CCCCC(=O)c1ccc(-c2ccc(C(=O)Nc3ccc(OC)c(N4CCN(C)CC4)c3)cc2C)cc1`, 65 to 67 °C.
`Cc1c(-c2ccc(Cl)cc2Cl)nc(C#N)n1S(=O)(=O)N(C)C`: the melting point fell in the range of 92 to 95 °C.
For `O=C1c2ccccc2C(O)(c2ccc(Cl)cc2)N1CCc1ccc([N+](=O)[O-])cc1` (stereo not drawn), the melting point lay in the range of 206 to 208 °C.
The same measure for `CN(C)[C@@H]1c2ccccc2N(C(=O)c2ccc(NC(=O)c3ccccc3Cl)cc2)CC[C@H]1O` (relative stereo): 180 to 182 °C; for `O=C(O)c1c2c(nc3ccc(F)cc13)-c1ccc(-c3cccs3)cc1CCC2`: greater than 300 °C; for `O=C1CC2CCc3cc(-n4ccc(=O)cc4)ccc3C2=NN1` (stereo not drawn): greater than 300 °C.
The same measure for `CCOc1cc(Cc2cnc(N)nc2N)cc(OCC)c1C(C)=O`: 229 to 231 °C.
In turn, `O=C(O)CCC(=NO)c1ccc(-c2ccc(Cl)cc2)cc1` gave a melting point of 155 to 157 °C.
The compound `O=C(O)c1cc(C(F)(F)F)nn1-c1ncccc1Cl` came in with a melting point of 175 to 176 °C.
Consider `COCCc1nc2c(N)nc3ccccc3c2n1CCCCNC(=O)c1ccc2ccccc2n1`, for which the melting point was 78.1 to 79.9 °C.
For `CCCCCCOc1ccc(-c2nc(-c3ccc(OCCCCCC)cc3O)nc(-c3ccc(OCCCCCC)cc3O)n2)c(O)c1` the value was 125 to 127 °C.
For `Clc1ccc2snc(-c3ccc(C4=NCCN4)cc3)c2c1` the value was 195 °C; for `O=C(c1cccs1)c1cnn2c(-c3cccc(NCC4CCCCC4)c3)ccnc12`, 101 to 104 °C.
For `Cc1cn(C)c2c1Nc1ccccc1NC2=O` the value was 184 °C; for `O=C(C1Cc2ccccc2N1c1ncccn1)N1CCCC1` (stereo not drawn), 220 to 223 °C.

Values taken from a melting point compilation (Tetko et al.; mined from patent text by program, amines drawn as free bases though some values may be those of a salt).
